From US12486278B2, “MASP-2 inhibitors and methods of use” (Omeros Corporation, priority 2019, dated 2025)
Structures can show the parent of a compound that is named as a salt.

Molecular target: T1, MASP-2 (CCP1-CCP2-SP) (Homo sapiens, UniProt O00187)
T1 construct: 15 μL of Enzyme MASP-2 (CCP1-CCP2-SP) in Assay Buffer
Assay: Enzymatic Assay for MASP-2 (fluorogenic substrate)
Type: biochemical
Settings: fluorogenic substrate based on C2 cleavage site; room temperature, 20 min; 20 mM HEPES pH 7.4, 140 mM NaCl, 0.1% Tween 20
In short: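 Fluorogenic substrate built on the C2 cleavage site, in 20 mM HEPES pH 7.4, 140 mM NaCl, 0.1% Tween 20, run at room temperature for 20 min before an acetic acid stop. Fluorescence normalised to DMSO-only and no-enzyme controls; IC50 taken as equivalent to Ki, with tight- or slow-binding inhibitors treated separately.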

T1 sequence (O00187 445-686 limits assumed): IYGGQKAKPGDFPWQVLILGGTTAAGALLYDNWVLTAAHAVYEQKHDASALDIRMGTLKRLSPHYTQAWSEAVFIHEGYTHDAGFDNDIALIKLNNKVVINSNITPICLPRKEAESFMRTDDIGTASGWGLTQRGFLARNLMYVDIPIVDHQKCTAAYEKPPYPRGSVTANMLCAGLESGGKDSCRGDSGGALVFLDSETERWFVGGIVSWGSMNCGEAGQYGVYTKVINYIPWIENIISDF
T1 sequence (O00187 298-444 partner limits assumed): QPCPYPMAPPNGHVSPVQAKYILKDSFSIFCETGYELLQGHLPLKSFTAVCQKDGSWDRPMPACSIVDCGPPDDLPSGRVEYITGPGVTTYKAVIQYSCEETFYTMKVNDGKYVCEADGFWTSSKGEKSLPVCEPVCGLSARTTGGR

| Ki [nM] | SMILES |
| --- | --- |
| < 500 | COC(=O)c1cccc(C[C@@H]2CN[C@@H](C(=O)N[C@@H](C)C(=O)NCc3ccc(N)nc3C)C2)c1 [Compound I-47, Methyl 3-(((3S,5R)-5-(((S)-1-(((6-Amino-2-Methylpyridin-3-Yl)Methyl)Amino)-1-Oxopropan-2-Yl)Carbamoyl)Pyrrolidin-3-Yl)Methyl)Benzoate Dihydrochloride] |
| < 500 | C[C@H](NC(=O)[C@H]1C[C@H](Cc2ccc(F)c(Cl)c2)CN1)C(=O)NCc1cc2cnccc2[nH]1 [Compound I-2, (2R,4S)—N—((S)-1-(((1H-Pyrrolo[3,2-C]Pyridin-2-Yl)Methyl)Amino)-1-Oxopropan-2-Yl)-4-(3-Chloro-4-Fluorobenzyl)Pyrrolidine-2-Carboxamide Di-Trifluoroacetate] |
| < 500 | [2H]C([2H])([2H])n1cc(Cl)c2cc(CNC(=O)[C@H](C)NC(=O)[C@H]3C[C@H](Cc4ccccc4)CN3)cnc21 [Compound I-45, (2R,4S)-4-Benzyl-N—((S)-1-(((3-Chloro-1-(Methyl-D3)-1H-Pyrrolo[2,3-B]Pyridin-5-Yl)Methyl)Amino)-1-Oxopropan-2-Yl)Pyrrolidine-2-Carboxamide Hydrochloride] |
| < 500 | Cc1nc(N)ccc1CNC(=O)[C@H](C)NC(=O)[C@H]1C[C@H](Cc2ccc(C(F)(F)F)s2)CN1 [Compound I-89, (2R,4R)—N—((S)-1-(((6-Amino-2-Methylpyridin-3-Yl)Methyl)Amino)-1-Oxopropan-2-Yl)-4-((5-(Trifluoromethyl)Thiophen-2-Yl)Methyl)Pyrrolidine-2-Carboxamide Dihydrochloride] |
| < 500 | Cc1nc(N)ccc1CNC(=O)[C@H](C)NC(=O)[C@H]1C[C@@H](c2cccc(-n3cccn3)c2)CCN1 [Compound I-78, (2R,4S)-4-(3-(1H-Pyrazol-1-Yl)Phenyl)-N—((S)-1-(((6-Amino-2-Methylpyridin-3-Yl)Methyl)Amino)-1-Oxopropan-2-Yl)Piperidine-2-Carboxamide Dihydrochloride] |
| < 500 | C[C@H](NC(=O)[C@H]1C[C@@H](c2ccccc2)CCN1)C(=O)NCc1cc2cnccc2[nH]1 [Compound I-90, (2R,4S)—N—((S)-1-(((1H-Pyrrolo[3,2-C]Pyridin-2-Yl)Methyl)Amino)-1-Oxopropan-2-Yl)-4-Phenylpiperidine-2-Carboxamide Di-Trifluoroacetate] |
| < 500 | Cc1nc(N)ccc1CNC(=O)[C@H](C)NC(=O)[C@H]1C[C@H](Cc2cccc(-c3ccc(F)cc3)c2)CN1 [Compound I-81, (2R,4S)—N—((S)-1-(((6-Amino-2-Methylpyridin-3-Yl)Methyl)Amino)-1-Oxopropan-2-Yl)-4-((4′-Fluoro-[1,1′-Biphenyl]-3-Yl)Methyl)Pyrrolidine-2-Carboxamide Di-Trifluoroacetate] |
| > 10000 | C[C@H](NC(=O)[C@H]1C[C@H](c2ccccc2)CN1)C(=O)NCc1cc2c(Br)cncc2[nH]1 [Compound I-1, (2R,4R)—N—((S)-1-(((4-bromo-1H-pyrrolo[2,3-c]pyridin-2-yl)methyl)amino)-1-oxopropan-2-yl)-4-phenylpyrrolidine-2-carboxamide di-trifluoroacetate] |
| < 500 | C[C@H](NC(=O)[C@H]1C[C@H](Cc2ccc(F)c(Cl)c2)CN1)C(=O)NCc1cnc2[nH]cc(Cl)c2c1 [Compound I-25, (2R,4S)—N—((S)-1-(((3-Chloro-1H-Pyrrolo[2,3-B]Pyridin-5-Yl)Methyl)Amino)-1-Oxopropan-2-Yl)-4-(3-Chloro-4-Fluorobenzyl)Pyrrolidine-2-Carboxamide Trifluoroacetate] |
| < 500 | C[C@H](NC(=O)[C@H]1C[C@@H](c2cccc(-n3cccn3)c2)CCN1)C(=O)NCc1ccc(C(=N)N)cc1 [Compound I-77, (2R,4S)-4-(3-(1H-Pyrazol-1-Yl)Phenyl)-N—((S)-1-((4-Carbamimidoylbenzyl)Amino)-1-Oxopropan-2-Yl)Piperidine-2-Carboxamide Dihydrochloride] |
| < 500 | Cc1nc(N)ccc1CNC(=O)[C@H](C)NC(=O)[C@H]1C[C@H](Cc2ccc(C#N)s2)CN1 [Compound I-86, (2R,4R)—N—((S)-1-(((6-Amino-2-Methylpyridin-3-Yl)Methyl)Amino)-1-Oxopropan-2-Yl)-4-((5-Cyanothiophen-2-Yl)Methyl)Pyrrolidine-2-Carboxamide Dihydrochloride] |
| < 500 | C[C@H](NC(=O)[C@H]1C[C@@H](c2ccc(-c3cccnc3)cc2)CCN1)C(=O)NCc1ccc(C(=N)N)cc1 [Compound I-72, (2R,4S)—N—((S)-1-((4-Carbamimidoylbenzyl)Amino)-1-Oxopropan-2-Yl)-4-(4-(Pyridin-3-Yl)Phenyl)Piperidine-2-Carboxamide Di-Trifluoroacetate] |
